Measurements as given in publication PMC9241695, “Selective Metal Chelation by a Thiosemicarbazone Derivative Interferes with Mitochondrial Respiration and Ribosome Biogenesis in Candida albicans” (Microbiology Spectrum, 2022).
Values after ≈ are worked out from the molar mass of the structure shown. Like-named read-outs stand apart in the source and are kept apart here.

How the values were obtained:
C. albicans G5 = experiment: microbe, parasite or virus in culture; assay type: cell-based; conditions: Candida albicans, G5
Text: (§1) Compound library. The thiosemicarbazone derivatives Triapine and COTI-2 were purchased from Med Chem Express (MCE). The other 87 thiosemicarbazones used in this study were previously synthesized by our collaborators (1, 2). Their structures are shown in Table 1 and Table S1 to help the reader clearly understand the relationship between structure and activity.
(§2) Strains and culture conditions. Clinically derived C. albicans isolates, including G5, F5, and Gu5, were kindly provided by Professor Joachim Morschhäuser of the University of Würzburg. Other clinical C. albicans isolates were kindly donated by Professor Qingguo Qi of Shandong University and Qianfoshan Hospital of Shandong Province Other Candida strains were obtained from Jinan Central Hospital.
(§3) The zap1 mutant and its complemented strain were kindly provided by Professor Aaron P. Mitchell of Carnegie Mellon University (3). The C. neoformans strains used in this study was kindly donated by Professor Guojian Liao of Southwest University and A. fumigatus strain used in this study was provided by Professor Ling Lu of Nanjing Normal University. Before in vitro and in vivo experiments, all C. albicans strains were grown on YPD agar plates. After culturing at 30°C for 24 h, colonies of each strain were cultured in liquid YPD medium at 30°C with continuous shaking […]
(§4) Antifungal susceptibility testing. To determine in vitro antifungal activities, the microbroth dilution method was carried out in RPMI1640 medium according to the guidelines of the Clinical and Laboratory Standards Institute (4, 5). The initial concentration in RPMI1640 medium was 1 × 10^3 CFU/mL for the C. albicans and C. neoformans suspensions but 1 × 10^4 CFU/mL for A. fumigatus. The range of final drug concentrations was 0.0156–64 μg/mL. The plates were incubated at35°C for 24 […]
(§5) h (for C. albicans, C. krusei, C. tropicalis, C. parapsilosis) or 48 h (for C. neoformans, A. fumigatus). The MIC was determined based on visible growth inhibition compared with the control. All experiments were performed in duplicate. […]

C. albicans Gu5 = experiment: microbe, parasite or virus in culture; assay type: cell-based; conditions: Candida albicans, GU5
Text: as §1, §2, §3, §4, §5

C. albicans SC5314 cells = experiment: Intracellular ATP production; assay type: cell-based, Candida albicans; conditions: 0.125 μg/mL, compared with control cells
Procedure: albicans SC5314 cells (1 × 10^6 cells/mL) were challenged with various doses of 19ak and incubated at 30°C for 6 h, followed by staining with 20 μM Rh123 for 30 min in the dark and detection by flow cytometry (Becton Dickinson, CA, USA).
Measurement of intracellular ATP production. To explore whether 19ak affects intracellular ATP content by damaging mitochondria, we treated C. albicans SC5314 cells (1 × 10^6 cells/mL) with different doses of 19ak. After lysing the cells in lysis buffer, ATP levels were measured with the ATP Assay Kit (Beyotime, Haimen, China) according to the manufacturer's instructions. Cellular protein concentrations were determined using a BCA Protein Assay Kit (Beyotime, Haimen, China). The intracellular ATP content was calculated by referring to a standard curve and normalized using the protein content of each sample for expression as nmol/mg […]
ROS production assay. […] The fluorescence intensity was then measured by flow cytometry, and the data were analyzed with Win MDI 2.9 software.
Influence of oxidant or antioxidant molecules on 19ak activity. […] The effects of NAC, Tu and DTT on the growth of 19ak treated fungal cells were measured using a time-growth curve. […] A microplate reader was used to measure the absorbance at600 nm, and the growth curves were plotted.

C. albicans SC5314 [1] = experiment: G. mellonella infection model; assay type: in vivo, Galleria mellonella; conditions: 19ak 0.4 μg per larva, FLC 2 μg per larva
Procedure: The G. mellonella infection model was used to evaluate the in vivo activity of 19ak in terms of survival, fungal burden, and histological features. A total of 60 larvae of similar size were selected and randomly allocated to four groups. The last right foreleg of each larva was injected with 10 μL of C. albicans SC5314 suspension (2 × 10^7 CFU/mL). Two hours after infection, the larvae were injected with 10 μL of drug or vehicle as follows for the four groups: 19ak (0.4 μg per larva), FLC (2 μg per larva), control (PBS), and blank control (no injection with C. albicans but injections of sterile PBS twice). The data for the blank control are not shown because this group survived well during the experiment. Failure to respond to light contact with forceps was considered a sign of larval death. In the survival assay, the number of surviving larvae in each group was calculated at the same time every day for 4 days.
To determine fungal burden, larval infection and treatment were performed as described above with groups of 30 larvae each. Each day, five larvae were randomly selected from each group and homogenized with glass beads in 0.5 mL of sterile PBS. The homogenate was serially diluted with sterile PBS, and 5 μL was spread on a yeast-peptone-dextrose solid plate ([62]). Experiments were performed at least three times independently.
We also conducted histopathological studies to explore the therapeutic effects of the drugs on G. mellonella fungal infection. First, the groups of larvae were infected as described above. After 48 h, three larvae from each group were randomly selected and fixed in 4% paraformaldehyde for sectioning and Periodic acid-Schiff (PAS) staining. The tissue was observed and photographed under an Olympus microscope with 40 × magnification (IX71, Olympus, Tokyo, Japan). The experiments were performed independently a minimum of three times.

C. albicans SC5314 [2] = experiment: Rescue effect of exogenous metal ions on MIC of 19ak; assay type: cell-based; conditions: Candida albicans
Procedure: as §5
Rescue effect of exogenous metal ions on fungal growth inhibition by 19ak.
Since the effects of thiosemicarbazone may be due to binding of intracellular metal ions, we investigated the impact of adding metal ions to the medium on the inhibitory effect of 19ak by performing antifungal susceptibility testing as described above in the presence of 50 μM, 100 μM, and 200 μM ZnSO4, FeSO4, and FeCl3. […]

C/C(=N\NC(=S)N(C)C)c1ccccn1 [Compound 19ak] was tested, and the MIC80 (C. albicans G5) was 1 µg/mL (≈ 4.5 µM), the MIC80 (C. albicans Gu5) was 0.25 µg/mL (≈ 1.12 µM) and the “Decrease of intracellular ATP levels” value (C. albicans SC5314 cells) was “approximately 65.8%”. The “Histopathology of infected larvae” value (C. albicans SC5314 [1]; 48 h, PAS staining) was “fewer infected areas”, the “Fungal burden of infected larvae” value (C. albicans SC5314 [1]; compared with the control group) was “greatly reduced the fungal burden” and the “Survival rate of infected larvae” value (C. albicans SC5314 [1]; after 4 days of infection, 2 h after infection) was 67%. It also gave an MIC (C. albicans SC5314 [2]; SC5314, + 50 μM Fe^2+ (FeSO4), read-out: MIC against C. albicans SC5314) of 1 µg/mL, an MIC (C. albicans SC5314 [2]; SC5314, + 50 μM Fe^3+ (FeCl3), read-out: MIC against C. albicans SC5314) of 0.25 µg/mL and an MIC (C. albicans SC5314 [2]; SC5314, + 50 μM Zn^2+ (ZnSO4), read-out: MIC against C. albicans SC5314) of 4 µg/mL. It also gave an MIC (C. albicans SC5314 [2]; SC5314, + 100 μM Fe^2+ (FeSO4), read-out: MIC against C. albicans SC5314) of 1 µg/mL, an MIC (C. albicans SC5314 [2]; SC5314, + 100 μM Fe^3+ (FeCl3), read-out: MIC against C. albicans SC5314) of 0.25 µg/mL and an MIC (C. albicans SC5314 [2]; SC5314, + 100 μM Zn^2+ (ZnSO4), read-out: MIC against C. albicans SC5314) of 4 µg/mL. The MIC (C. albicans SC5314 [2]; SC5314, + 200 μM Fe^2+ (FeSO4), read-out: MIC against C. albicans SC5314) was 1 µg/mL, the MIC (C. albicans SC5314 [2]; SC5314, + 200 μM Fe^3+ (FeCl3), read-out: MIC against C. albicans SC5314) was 0.5 µg/mL and the MIC (C. albicans SC5314 [2]; SC5314, + 200 μM Zn^2+ (ZnSO4), read-out: MIC against C. albicans SC5314) was 4 µg/mL. The MIC (C. albicans SC5314 [2]; SC5314, read-out: MIC against C. albicans SC5314) was 0.125 µg/mL.
